The source of these data is article PMC10036551, “Genome mining unveils a class of ribosomal peptides with two amino termini” (Nature Communications, 2023).

Residues, ends and D or L forms follow the SMILES beside them. *: point of attachment. X1 = C[C@@H](CN*)N(C)C

The data set is classed as physicochemical. The procedure: The HPLC-purified products were analyzed by high-resolution mass spectrometry and tandem mass spectrometry (HR-MS/MS). […] Considering the predicted functions of genes encoded by the mpa BGC, we proposed that Thr underwent conversion to Dmp. To evaluate this hypothesis, a sufficient amount of 1 was accumulated for structure determination, due to its higher post-purification yield than 2 and 3. […] NMR analyses (^1H, ^13C, ^1H-^1H COSY, ^1H-^13C HSQC and ^1H-^13C HMBC) were then conducted in HFIP-d2 and a substructure corresponding to Dmp was deduced.

On to `CC[C@H](C)[C@H](NC(=O)CNC(=O)[C@@H](NC(=O)[C@H](CC(C)C)NC(=O)[C@@H](NC(=O)[C@H](CC(C)C)NC(=O)[C@H](C)NC(=O)CNC(=O)[C@@H](NC(=O)[C@@H](NC(=O)CNC(=O)[C@H](CCC(N)=O)NC(=O)[C@H](Cc1ccc(O)cc1)NC(=O)[C@H](Cc1ccccc1)NC(=O)[C@H](CO)NC(=O)[C@H](CC(=O)O)NC(=O)[C@H](Cc1c[nH]c2ccccc12)NC(=O)[C@@H](N)CO)C(C)C)[C@@H](C)CC)C(C)C)[C@@H](C)CC)C(=O)NCC(=O)N[C@@H](C)C(=O)N[C@@H](C)C(=O)N[C@@H](C)C(=O)N[C@@H](C)C(=O)NC[C@H](C)N(C)C` [compound 1] (H-SWDSFYQGVIGALVLIGIGAAAA-X1), for which the “solubility in commonly used NMR solvents” value is listed as “only sparingly soluble” and the “solubility in hexafluoroisopropanol (HFIP)” value is “highly soluble”.
